In patent US5011930A, “Quinoline type mevalonolactones” (Nissan Chemical Industries Ltd., priority 1987, dated 1991):
Counter-ions that a name gives are not always drawn.

These compounds were tested on cholesterol biosynthesis (assay: Test A: Inhibition of cholesterol biosynthesis from acetate in vitro). Details: [2-^14 C]sodium acetate incorporation into nonsaponifiable lipids, 2 hours at 37° C.; IC50; read-out: Inhibitory activities by Test A: I50 (molar concentration).
Assay type: biochemical, male Wistar rat (liver microsome and sup fraction)
Procedure: Enzyme solution was prepared from liver of male Wistar rat billialy cannulated and discharged bile for over 24 hours. Liver was cut out at mid-dark and microsome and supernatant fraction which was precipitable with 40-80% of saturation of ammonium sulfate (sup fraction) were prepared from liver homogenate according to the modified method of Knauss et. al.; Kuroda, M., et. al., Biochim. Biophys. Acta, 489, 119 (1977). For assay of cholesterol biosynthesis, microsome (0.1 mg protein) and sup fraction (1.0 mg protein) were incubated for 2 hours at 37° C. in 200 μl of the reaction mixture containing ATP; 1 mM, Glutathione; 6 mM, Glucose-1-phosphate; 10 mM, NAD; 0.25 mM, NADP; 0.25 mM, CoA; 0.04 mM and 0.2 mM [2-^14 C]sodium acetate (0.2 μCi) with 4 μl of test compound solution dissolved in water or dimethyl sulfoxide. To stop reaction and saponify, 1 ml of 15% EtOH-KOH was added to the reactions and heated at 75° C. for 1 hour. […] Inhibitory activity of compounds was indicated with IC50.
`CC[C@H](C)C(=O)O[C@H]1C[C@H](O)C=C2C=C[C@H](C)[C@H](CC[C@@H](O)C[C@@H](O)CC(=O)O)[C@H]21` [CS-514, reference compound] was tested, and the IC50 was 9 nM. Compound `Cc1nc2ccccc2c(-c2ccccc2)c1/C=C/C(O)CC(O)CC(=O)O` (stereo not drawn) [I-53] has an IC50 of 190 nM. In the case of `CC(C)c1nc2ccccc2c(-c2ccc(F)cc2)c1/C=C/C(O)CC(O)CC(=O)O` (stereo not drawn) [I-51, Sodium salt of (E)-3,5-dihydroxy-7-[4'-(4"-fluorophenyl)-2'-(1"-methylethyl)-quinolin-3'-yl]-hept-6-enoic acid], the IC50 is reported as 10 nM. `CC[C@H](C)C(=O)O[C@H]1C[C@@H](C)C=C2C=C[C@H](C)[C@H](CC[C@@H]3C[C@@H](O)CC(=O)O3)[C@H]21` [Mevinolin, reference compound] was tested, and the IC50 was 14 nM. Compound `Cc1nc2ccccc2c(-c2ccc(F)cc2)c1/C=C/C(O)CC(O)CC(=O)O` (stereo not drawn) [I-52] has an IC50 of 71 nM. Compound `CCOC(=O)CC(O)CC(O)/C=C/c1c(C)nc2ccccc2c1-c1ccccc1` (stereo not drawn) [I-13] has an IC50 of 125 nM.

Same assay, conditions: relative to the activity of CS-514 being evaluated to be 1
With `CCOC(=O)CC(O)CC(O)/C=C/c1c(C(C)C)nc2ccc(Cl)cc2c1-c1ccccc1` (stereo not drawn) [I-16] the “Relative activities by Test A” value was 1.75. In the case of `CCOC(=O)CC(O)CC(O)/C=C/c1c(C2CC2)nc2ccccc2c1-c1ccc(F)cc1` (stereo not drawn) [I-120], the “Relative activities by Test A” value is reported as 3.21. With `CC(C)c1nc2c(Cl)cc(Cl)cc2c(-c2ccc(F)cc2)c1/C=C/C(O)CC(O)CC(=O)O` (stereo not drawn) [I-522] the “Relative activities by Test A” value was 0.76. For `CCOC(=O)CC(O)CC(O)/C=C/c1c(CC)nc2ccccc2c1-c1ccc(F)cc1` (stereo not drawn) [I-117], the “Relative activities by Test A” value was 0.37. In the case of `CCOC(=O)CC(O)CC(O)/C=C/c1c(C(C)C)nc2cc(OC)c(OC)cc2c1-c1ccc(F)cc1` (stereo not drawn) [I-116], the “Relative activities by Test A” value is reported as 2.25.

Each compound was assayed on cholesterol biosynthesis in Hep G2 cells (assay: Test B-1: Inhibition of cholesterol biosynthesis in culture cells (Hep G2)). Details: Homo sapiens, HepG2, [2-^14 C]sodium acetate added at 0 hr after addition of compounds, 4 hrs incubation, read-out: Inhibitory activities by Test B-1: I50 (molar concentration).
Assay type: cell-based
Procedure: Hep G2 cells at over 5th passage were seeded to 12 well plates and incubated with Dulbecco's modified Eagle (DME) medium containing 10% of fetal bovine serum (FBS) at 37° C., 5% CO2 until cells were confluent for about 7 days. Cells were exposed to the DME medium containing 5% of lipoprotein deficient serum (LpDS) prepared by ultracentrifugation method for over 24 hours. Medium was changed to 0.5 ml of fresh 5% LpDS containing DME before assay and 10 μl of test compound solution dissolved in water or DMSO were added. 0.2 μCi of [2-^14 C]sodium acetate (20 μl) was added at 0 hr(B-1) or 4 hrs(B-2) after addition of compounds. After 4 hrs further incubation with [2-^14 C]sodium acetate, medium was removed and cells were washed with phosphate buffered saline(PBS) chilled at 4° C. Cells were scraped with rubber policeman and collected to tubes with PBS and digested with 0.2 ml of 0.5 N KOH at 37° C. Aliquot of digestion was used for protein analysis and remaining was saponified with 1 ml of 15% EtOH--KOH at 75° C. for 1 hour. […] Counts were revised by cell protein and indicated with DPM/mg protein. Inhibitory activity of compounds was indicated with IC50.
With `CC(C)c1nc2ccccc2c(-c2ccc(F)cc2)c1/C=C/C(O)CC(O)CC(=O)O` (stereo not drawn) [I-51, Sodium salt of (E)-3,5-dihydroxy-7-[4'-(4"-fluorophenyl)-2'-(1"-methylethyl)-quinolin-3'-yl]-hept-6-enoic acid] the IC50 was 100 nM.

Same assay, conditions: relative to the activity of CS-514 being evaluated to be 1
For `CCOC(=O)CC(=O)CC(O)/C=C/c1c(C2CC2)nc2ccccc2c1-c1ccc(F)cc1` (stereo not drawn) [II-20], the “Relative activities by Test B-1” value was 20.8. With `O=C(O)CC(O)CC(O)/C=C/c1c(C2CC2)nc2ccccc2c1-c1ccc(F)cc1` (stereo not drawn) [I-520] the “Relative activities by Test B-1” value was 20.0. `CCOC(=O)CC(O)CC(O)/C=C/c1c(C(C)C)nc2cc(OC)c(OC)cc2c1-c1ccc(F)cc1` (stereo not drawn) [I-116] was tested, and the “Relative activities by Test B-1” value was 19.4.
